As a reminder, the IC50 is the point on the concentration scale where inhibition reaches its midpoint. The low end stands for greater potency, the high end for weaker potency. The Cmax is the peak of the concentration-time curve. The AUC(0-t) is exposure summed from dosing to a finite time, without extrapolation to infinity. Higher therefore signals more exposure.

This is an account of results in ChEMBL document CHEMBL2384945, “Discovery of RG7112: A Small-Molecule MDM2 Inhibitor in Clinical Development” (ACS Med Chem Lett, 2013).

SMILES strings stand for the structures.

For one data set, the system named is MDA-MB-435. As to the kind of experiment: cells. The note with it: Homo sapiens, MDA-MB-435, 120 h.
The next data set deals with RKO. Nature of the data set: cells. The following applies: Homo sapiens, 120 h.
The subject of another data set is SW480. Nature of the data set: cells. The note with it: Homo sapiens, SW480, 120 h.
Data set [1] concerns SJSA-1. Nature of the data set: cells. The following applies: Homo sapiens, SJSA-1, 120 h.
Description: Cytotoxicity against human SJSA1 cells expressing wild type p53 assessed as cell viability after 5 days by MTT assay
The subject of another data set is HCT-116. Nature of the data set: cells. The following applies: Homo sapiens, HCT-116, 120 h.
A short description of data set [2]: Cmax in mouse at 50 mg/kg, po. In kind it is ADME, organism-based. Set-up: dose 50 mg/kg, route oral. The following applies: in vivo.
Data set [3] can be described thus: Apparent half life in mouse at 50 mg/kg, po. In kind it is ADME, organism-based. Set-up: dose 50 mg/kg, route oral. The following applies: in vivo, read-out: t1/2(app) (converted).
Data set [4] can be described thus: AUClast in mouse at 50 mg/kg, po. In kind it is ADME, organism-based. Set-up: time 0 - last, dose 50 mg/kg, route oral. The note with it: plasma.
Data set [5] is described as follows: Cmax in mouse at 100 mg/kg, po. Format: ADME, organism-based. Set-up: dose 100 mg/kg, route oral. The following applies: in vivo.
Data set [6] can be described thus: Apparent half life in mouse at 100 mg/kg, po. In kind it is ADME, organism-based. Set-up: dose 100 mg/kg, route oral. The following applies: in vivo, read-out: t1/2(app) (converted).
The nature of data set [7]: AUClast in mouse at 100 mg/kg, po. In kind it is ADME, organism-based. Set-up: time 0 - last, dose 100 mg/kg, route oral. The note with it: plasma.
For data set [8], the system named is SJSA-1. As to the kind of experiment: animal or person. The note with it: Mus musculus, SJSA-1, po, read-out: TGI.
Description: Antitumor activity against human SJSA1 cells xenografted in nude mouse assessed as tumor growth inhibition at 50 mg/kg, po relative to control
The nature of data set [9]: Antitumor activity against human MHM cells xenografted in po dosed mouse relative to nutlin-3a. In kind it is functional. (In general: In xenograft studies the graft and the host belong to different species.)

Description for HCT-116: Cytotoxicity against human HCT116 cells expressing wild type p53 assessed as cell viability after 5 days by MTT assay
Description for MDA-MB-435: Cytotoxicity against human MDA-MB-435 cells expressing p53 mutant assessed as cell viability after 5 days by MTT assay
Description for RKO: Cytotoxicity against human RKO cells expressing wild type p53 assessed as cell viability after 5 days by MTT assay
Description for SW480: Cytotoxicity against human SW480 cells expressing p53 mutant assessed as cell viability after 5 days by MTT assay

With `CCOc1cc(C(C)(C)C)ccc1C1=N[C@@](C)(c2ccc(Cl)cc2)[C@@H](c2ccc(Cl)cc2)N1C(=O)N1CCN(CCCS(C)(=O)=O)CC1`, the 50% inhibitory concentration (IC50) with MDA-MB-435 is above 30 µM; in the data set with RKO, above 30 µM; in the data set on SW480 it was above 30 µM; in the data set on SJSA-1 [1], 12.4 µM; with HCT-116, 14.4 µM.

`CCOc1cc(C(C)(C)C)ccc1C1=N[C@@](C)(c2ccc(Cl)cc2)[C@@](C)(c2ccc(Cl)cc2)N1C(=O)N1CCNC(=O)C1`: the IC50 is above 30 µM in the data set on MDA-MB-435; 23.7 µM in the data set on RKO; above 30 µM in the data set with SW480; 7.6 µM with SJSA-1 [1]; 16.4 µM with HCT-116.

On to `CCOc1cc(C(C)(C)C)ccc1C1=N[C@@](C)(c2ccc(Cl)cc2)[C@@](C)(c2ccc(Cl)cc2)N1C(=O)N1CCNCC1`, for which the IC50 in the data set on MDA-MB-435 turned out to be 4.2 µM; in the data set on RKO it was 0.5 µM; in the data set with SW480 it was 2.7 µM; in the data set with SJSA-1 [1] it was 0.6 µM; with HCT-116 it was 1.2 µM.

For the compound `CCOc1cc(C(C)(C)C)ccc1C1=N[C@@](C)(c2ccc(Cl)cc2)[C@@](C)(c2ccc(Cl)cc2)N1C(=O)N1CCCCC1`, the IC50 with MDA-MB-435 is 24.9 µM; in the data set with RKO, 6.8 µM; with SW480, 23.1 µM; with SJSA-1 [1], 7.3 µM; with HCT-116, 10.7 µM.

Take `CCOc1cc(C(C)(C)C)ccc1C1=N[C@@](C)(c2ccc(Cl)cc2)[C@@](C)(c2ccc(Cl)cc2)N1C(=O)N1CCN(C(C)=O)CC1`: in data set [2], the Cmax came to 19600 ng/mL. The half-inhibitory concentration (IC50) in the data set with MDA-MB-435 was found to be 14.9 µM; in the data set on RKO, 0.5 µM; in the data set on SW480 it was 17.8 µM; in the data set on SJSA-1 [1], 0.3 µM; in the data set on HCT-116 it was 0.6 µM. The half-life in data set [3] was 2.4 h. Further, the AUC(0-t) in data set [4] was 64900 ng·h/mL.

For `CCOc1cc(C(C)(C)C)ccc1C1=N[C@@](C)(c2ccc(Cl)cc2)[C@@](C)(c2ccc(Cl)cc2)N1C(=O)N1CCN(CCC(F)(F)F)CC1`, the IC50 with MDA-MB-435 amounted to 29.3 µM; with RKO, 0.4 µM; in the data set on SW480, 5 µM; with SJSA-1 [1], 2.5 µM; in the data set with HCT-116 it was 1.3 µM.

With `CCOc1cc(C(C)(C)C)ccc1C1=N[C@@](C)(c2ccc(Cl)cc2)[C@@](C)(c2ccc(Cl)cc2)N1C(=O)N1CCN(CCO)CC1`, the IC50 was found to be 9.6 µM in the data set on MDA-MB-435; 0.3 µM with RKO; 12.3 µM in the data set on SW480; 0.2 µM with SJSA-1 [1]; 0.8 µM with HCT-116.

As for `CCOc1cc(C(C)(C)C)ccc1C1=N[C@@](C)(c2ccc(Cl)cc2)[C@@](C)(c2ccc(Cl)cc2)N1C(=O)N1CCN(CCNS(C)(=O)=O)CC1`, the concentration for half-maximal inhibition (IC50) is 7.3 µM in the data set on MDA-MB-435; 0.3 µM with RKO; 9.1 µM with SW480; 0.2 µM in the data set with SJSA-1 [1]; 0.9 µM in the data set on HCT-116.

For the compound `CCOc1cc(C(C)(C)C)ccc1C1=N[C@@](C)(c2ccc(Cl)cc2)[C@@](C)(c2ccc(Cl)cc2)N1C(=O)N1CCN(CCNC(C)=O)CC1`, in [2], the Cmax is 12000 ng/mL. In addition, the IC50 is 10.5 µM with MDA-MB-435; 0.3 µM in the data set on RKO; 11 µM in the data set on SW480; 0.1 µM with SJSA-1 [1]; 0.5 µM in the data set on HCT-116. In data set [3], the half-life was 2.3 h. In data set [4], this compound returned an AUC(0-t) of 136000 ng·h/mL.

`CCOc1cc(C(C)(C)C)ccc1C1=N[C@@](C)(c2ccc(Cl)cc2)[C@@](C)(c2ccc(Cl)cc2)N1C(=O)N1CCN(CC(=O)N2CCCC2)CC1` showed a peak concentration (Cmax) in [2] of 2300 ng/mL. Besides, the IC50 with MDA-MB-435 came out at 9.5 µM; in the data set with RKO, 0.5 µM; in the data set with SW480, 14.4 µM; in the data set with SJSA-1 [1], 0.3 µM; in the data set on HCT-116, 0.7 µM. Further, the half-life in data set [3] was 4.7 h. The AUC(0-t) in [4] was 8300 ng·h/mL.

Take `CCOc1cc(C(C)(C)C)ccc1C1=N[C@@](C)(c2ccc(Cl)cc2)[C@@](C)(c2ccc(Cl)cc2)N1C(=O)N1CCN(CC(=O)N2CCOCC2)CC1`: the IC50 in the data set on MDA-MB-435 turned out to be 17.5 µM; with RKO, 0.6 µM; in the data set with SW480, 14.4 µM; with SJSA-1 [1], 0.2 µM; in the data set on HCT-116, 0.6 µM.

For the compound `CCOc1cc(C(C)(C)C)ccc1C1=N[C@@](CC)(c2ccc(Cl)cc2)[C@@](CC)(c2ccc(Cl)cc2)N1C(=O)N1CCN(CCCS(C)(=O)=O)CC1`, the IC50 in the data set on MDA-MB-435 was 28.2 µM; with RKO, 12.5 µM; in the data set on SW480, 24.6 µM; in the data set with SJSA-1 [1], above 30 µM; with HCT-116 it was 13.7 µM.

As for `COc1ccc(C2=N[C@@H](c3ccc(Cl)cc3)[C@@H](c3ccc(Cl)cc3)N2C(=O)N2CCNC(=O)C2)c(OC(C)C)c1` [NUTLIN-3], the concentration in data set [5] peaked (Cmax) at 12100 ng/mL. Besides, the half-life in data set [6] was 2.6 h. The 50% inhibitory concentration (IC50) in the data set on RKO, in the data set on SJSA-1 [1] and in the data set on HCT-116 was 1.5 µM each time. In data set [7], the AUC(0-t) is 65000 ng·h/mL.

On to `CCOc1cc(C(C)(C)C)ccc1C1=N[C@@](C)(c2ccc(Cl)cc2)[C@@](C)(c2ccc(Cl)cc2)N1C(=O)N1CCN(CCCS(C)(=O)=O)CC1` [RO-5045337], for which the maximum concentration (Cmax) in data set [2] worked out at 15500 ng/mL. Besides, the IC50 with MDA-MB-435 turned out to be 9.9 µM; in the data set on RKO it was 0.4 µM; with SW480 it was 16.6 µM; in the data set with SJSA-1 [1], 0.3 µM; in the data set with HCT-116, 0.5 µM. The inhibition in vivo at 50 mg/kg with SJSA-1 [8] is 74%. For the same compound, the half-life in [3] is 8.8 h. In data set [9], the “fold change (FC)” value was 4. In data set [4], this compound gave an AUC(0-t) of 251000 ng·h/mL.
